Tests used:
E. coli [1] = test: Radial diffusion assay; assay type: cell-based; settings: qualitative comparison with wild type BF2
E. coli [2] = test: Membrane permeability by propidium iodide; assay type: cell-based; settings: qualitative comparison with wild type BF2; PI uptake in E. coli

Row | Sequence | ANTIMICROBIAL ACTIVITY compared to wild type (E. coli [1]) | MEMBRANE PERMEABILIZATION compared to wild type (E. coli [2])
1 | TRSSRAGLQFAPGRVHRLLRK [P11A/V12P] | LOWER | SIMILAR
2 | TRSSRAGLQFAVGRPHRLLRK [P11A/V15P] | LOWER | SIMILAR
3 | TRSSRAGLQFAVGRVHRLLRK [P11A] | LOWER | HIGHER
4 | TRSSRAPLQFAVGRVHRLLRK [P11A/G7P] | SIMILAR | HIGHER

Source: PMC3060972 (Peptides, 2011)
